These results are taken from patent US8916553B2 (Bristol-Myers Squibb Company, priority 2010, dated 2014).

Broadly, the IC50 is the concentration that inhibits the measured activity by half.

The assay deals with Human CYP17 (Homo sapiens (Human), UniProt P05093). The assay can be described thus: CYP17 Total SPA Assay. Format: biochemical. Conditions: microsomes from HEK2 cells stably transfected with CYP17; 3H-Pregnenolone 1 uM; NADPH 2 mM; 45 minutes at room temperature. The protocol: CYP17 Total SPA Assay The assays were performed in U-bottom 384-well optiplates. […] The reaction was initiated by the combination of the microsomes and substrates in wells containing compound. The reaction was incubated at room temperature for 45 minutes and terminated by adding 7.5 μl of 0.2N HCl to each well. […] The plate was sealed and incubated overnight with shaking at 4° C. The beads were allowed to settle in the plate for 1 hour and the plate read on a TOPCOUNT® (Perkin-Elmer) plate reader. […] The final concentration of reagents in the assays are NADPH, 2 mM; 3H-Pregnenolone, 1 uM; microsomes, 1.25 ug/ml; […] Dose response curves were generated to determine the concentration required inhibiting 50% of enzyme activity (IC50). Compounds were dissolved at 10 mM in dimethylsulfoxide (DMSO) and evaluated at eleven concentrations, each in duplicate. IC50 values were derived by non-linear regression analysis. Table 22 below lists the IC50 values for the following Examples of this invention measured in the Total CYP17 SPA Assay hereinabove.
Human CYP17, sequence (P05093 whole entry): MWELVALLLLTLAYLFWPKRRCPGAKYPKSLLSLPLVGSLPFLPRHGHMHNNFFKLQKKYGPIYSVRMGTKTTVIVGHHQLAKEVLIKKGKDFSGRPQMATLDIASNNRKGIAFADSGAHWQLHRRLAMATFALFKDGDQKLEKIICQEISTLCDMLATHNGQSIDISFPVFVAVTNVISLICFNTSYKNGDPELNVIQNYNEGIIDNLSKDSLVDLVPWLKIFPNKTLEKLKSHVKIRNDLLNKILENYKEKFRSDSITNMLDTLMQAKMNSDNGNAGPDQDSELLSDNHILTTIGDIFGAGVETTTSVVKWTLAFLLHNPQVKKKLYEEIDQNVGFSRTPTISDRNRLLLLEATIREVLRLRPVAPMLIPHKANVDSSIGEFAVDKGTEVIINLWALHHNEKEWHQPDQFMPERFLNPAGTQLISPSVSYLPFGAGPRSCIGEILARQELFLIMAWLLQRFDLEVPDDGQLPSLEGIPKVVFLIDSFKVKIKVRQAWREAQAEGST
Consider `Cc1cc(NS(C)(=O)=O)ccc1-c1cnccc1OCC(F)(F)F` [Example 198, N-(3-methyl-4-(4-(2,2,2-trifluoroethoxy)-3-pyridinyl)phenyl) methane sulfonamide], for which the concentration for half-maximal inhibition (IC50) worked out at 1.4 nM. As for `Cc1ccncc1-c1ccc(NS(C)(=O)=O)cc1OCC(F)(F)F` [Example 24, N-(4-(4-methyl-3-pyridinyl)-3-(2,2,2-trifluoroethoxy)phenyl)methane sulfonamide], the IC50 came out at 42 nM. For `COc1cc(NS(=O)(=O)CC(F)(F)F)ccc1-c1cncnc1C` [Example 167, 2,2,2-trifluoro-N-(3-methoxy-4-(4-methylpyrimidin-5-yl)phenyl)ethanesulfonamide], the IC50 is 158 nM.

For `CCS(=O)(=O)Nc1ccc(-c2cncc3ccccc23)c(OC)c1` [Example 156, N-(4-(isoquinolin-4-yl)-3-methoxyphenyl)ethanesulfonamide], the IC50 is 8.1 nM.

Turning to `COc1cc(NS(=O)(=O)c2ccc(Cl)cc2)ccc1-c1cncnc1C` [Example 172, 4-chloro-N-(3-methoxy-4-(4-methylpyrimidin-5-yl)phenyl)benzenesulfonamide], the IC50 turned out to be 117 nM. As to `CS(=O)(=O)Nc1ccc(-c2cnccc2C2CC2)c(C(F)(F)F)c1` [Example 243, N-(4-(4-cyclopropylpyridin-3-yl)-3-(trifluoromethyl)phenyl)methanesulfonamide], the IC50 stood at 39 nM.

Consider `COc1cc(NS(C)(=O)=O)ccc1-c1cncn2cccc12` [Example 250, N-(3-methoxy-4-(pyrrolo[1,2-c]pyrimidin-4-yl)phenyl)methanesulfonamide], for which the 50% inhibitory concentration (IC50) was 120 nM. With `COc1cc(NS(C)(=O)=O)ccc1-c1cncnc1C1CCCCC1` [Example 221, N-(4-(4-cyclohexylpyrimidin-5-yl)-3-methoxyphenyl)methanesulfonamide], the IC50 was found to be 100 nM. Turning to `CS(=O)(=O)Nc1ccc(-c2cncc3ncccc23)c(OCCF)c1` [Example 239, N-(3-(2-fluoroethoxy)-4-(1,7-naphthyridin-5-yl)phenyl)methanesulfonamide], the half-maximal inhibitory concentration (IC50) is 51 nM. Turning to `COc1cc(NS(=O)(=O)c2ccccc2)ccc1-c1cncnc1C` [Example 165, N-(3-methoxy-4-(4-methylpyrimidin-5-yl)phenyl)benzenesulfonamide], the IC50 was 5.4 nM. In the case of `Cc1ccncc1-c1ccc(NS(=O)(=O)C2CC2)cc1OCC(F)(F)F` [Example 184], the IC50 stood at 7.7 nM. With `COc1cc(NS(=O)(=O)CC(C)C)ccc1-c1cncnc1C` [Example 164], the concentration for half-maximal inhibition (IC50) was found to be 100 nM. On to `COc1cc(NS(=O)(=O)Cc2ccc(Cl)cc2)ccc1-c1cncnc1C` [Example 173, 1-(4-chlorophenyl)-N-(3-methoxy-4-(4-methylpyrimidin-5-yl)phenyl)methanesulfonamide], for which the 50% inhibitory concentration (IC50) was 3.4 nM. As to `COc1cc(NS(=O)(=O)c2cccnc2)ccc1-c1cncnc1C` [Example 166, N-(3-methoxy-4-(4-methylpyrimidin-5-yl)phenyl)pyridine-3-sulfonamide], the IC50 came to 131 nM. Turning to `COc1cc(NS(=O)(=O)c2ccc3ccccc3c2)ccc1-c1cncnc1C` [Example 175, N-(3-methoxy-4-(4-methylpyrimidin-5-yl)phenyl)naphthalene-2-sulfonamide], the IC50 was found to be 59 nM. Under `CS(=O)(=O)Nc1ccc(-c2cncc3ccccc23)c(OCCF)c1` [Example 234, N-(3-(2-fluoroethoxy)-4-(isoquinolin-4-yl)phenyl)methanesulfonamide] stands 40 nM.

Regarding `COc1cc(NS(=O)(=O)c2cn(C)c(C)n2)ccc1-c1cncc2ccccc12` [Example 158, N-(4-(isoquinolin-4-yl)-3-methoxyphenyl)-1,2-dimethyl-1H-imidazole-4-sulfonamide], the IC50 is 118 nM. As to `CS(=O)(=O)Nc1ccc(-c2cncc3ccccc23)c(OCC(F)(F)F)c1` [Example 232, N-(4-(isoquinolin-4-yl)-3-(2,2,2-trifluoroethoxy)phenyl)methanesulfonamide], the IC50 was determined as 59 nM.
